Test results published in US20220372491A1, “TREATMENT OF RENAL CYSTIC DISEASE” (MONASH UNIVERSITY, priority 2019, published 2022).

Tests used:
Inpp5e^Δ/Δ mice = test: Oral Alisertib treatment of Inpp5e^Δ/Δ mice (Joubert Syndrome associated PKD model); assay type: in vivo, mouse
Experimental: (§1) Alisertib treatment was performed based on previously published protocols (Nikonova et al., (2014) PNAS 111:12859-12864; Nikonova (2015) Frontiers Oncol. 5:228), as follows: Starting at P9 Inpp5e^Δ/Δ and Inpp5e^Δ/Δ mice were treated once daily for 5 days with Alisertib delivered orally by pipette in a suspended solution with a final composition of 3.6 mg/ml Alisertib ([…], Selleck Chemicals) in 10% 2-hydroxypropyl-β-cyclodextrin ([…]-10ML, Sigma-Aldrich) with 1% (vol/vol) sodium bicarbonate ([…]-100ML, Sigma-Aldrich) and 5% glucose (49163-100ML, Sigma-Aldrich). Mice were dosed with a volume to deliver Alisertib at 10 mg/kg. Mouse body weights were recorded daily. Solutions were stored at 4 degrees for up to 1 month. […] Mice were then given 2 recovery days before being sacrificed at P15. This time frame was selected as it corresponded to an exponential rise in cyst number in Inpp5e^Δ/Δ mice. Aurka^Δ/Δ and Inpp5e^Δ/Δ; Aurka^Δ/Δ treatment groups were also included to determine the AURKA specificity of any phenotypes observed given Alisertib's broad drug targeting profile. Mice were culled via cervical dislocation or decapitation, as most appropriate for their age following ethical guidelines. Procedures were all conducted by ethically approved and trained personnel. Mice were measured for body weight, with ear tissue, urine and kidneys collected. Ear tissue and urine was stored at -20 degrees. Newborn and P4 kidneys were fixed whole in 4% PFA for 16 hrs at 4 degrees, while the kidney capsule membrane was removed from older mouse kidneys, with the kidney cut into halves and fixed in 10% NBF for 16 hrs at room temperature. Half the kidney samples were sent for histological processing and the other half were snap frozen and stored at -80 degrees until processed for RNA, alpha analysis and/or western blotting. Kidney tissues were paraffin imbedded and sectioned at 4 μm for most analysis with the exception of being sectioned at 10 μm for cilia analysis. Antigen retrieval was performed in Citrate buffer pH6 using Tefal pressure cooker or using a DAKO […] system as indicated. Antibody staining was performed as described elsewhere (Cottle et al., (2013) Cell reports, 3: 427-441), except triton x-100 was included in blocking buffers, and cover slips mounted using Prolong Gold (Invitrogen). Antibodies and stains are listed below. Imaging was using an Aperio brightfield and fluorescent scanners (MHP), Olympus Fluoview 500 (Biochemistry Imaging Suite), Nikon C2 or Leica SP8 confocal microscope (MMI). All quantifications with the exception of Nanostring analysis and Chi squared tests for analysis of mendelian ratios, were analyzed using the unpaired Student's t-test assuming unequal variance in Microsoft Excel and P≤0.05 values were considered significant. One or two tailed tests were selected as appropriate for hypothesis. Values presented are Mean±Standard Error of the Mean (S.E.M). 2K/BW % was calculated as the combined kidney weight over total body weight percentage. Albumin Creatinine Ratios (ACR) were calculated as μg Albumin over mg of Creatinine. Cyst identity was measured as a proportion of cyst epithelial area for each marker out of total sum of cyst epithelial areas of all markers (adjusted for marker co-localisation). Cystic index % is calculated as the proportion of cystic space occupied out of total kidney area in DBA-stained kidney longitudinal cross-sections. Cyst number reflects the average number of cysts counted per DBA-stained longitudinal kidney cross section. Cyst size is the average cross-sectional cyst size (mm^2) of cysts sampled from DBA-stained kidney longitudinal cross sections. Due to escape of Cre activity at the Aurka locus in cysts, unless otherwise indicated references to Inpp5e^Δ/Δ; Aurka^Δ/Δ immunostains and their quantifications reflect non-cystic regions throughout this study.

[1] = test system: Inpp5e^Δ/Δ; Aurka^Δ/Δ mice; test: Oral Alisertib treatment of Inpp5e^Δ/Δ; Aurka^Δ/Δ (double mutant) mice; assay type: in vivo, mouse
Experimental: as §1

mIMCD3 cells = test: Western blots and densitometry of mIMCD3 cell lysates treated with Alisertib; assay type: cell-based, mouse
Experimental: mIMCD3 cells were grown as previously described (Plotnikova et al., (2015) J. Cell Sci. 128: 364-372). Using a hemocytometer, mIMCD3 cells were seeded in 6 well dishes at 1.3×10^5 cells per well in growth media and incubated overnight at 37° C. in 5% CO2. Lipofectamine 3000 Reagent kit (Invitrogen) was used for plasmid transfection according to manufacturer's protocol (3.75 μl of Lipofectamine 3000, 2.5 μg DNA and 5 μl of P3000 reagent in each well). siRNA transfections were also performed with Lipofectamine 3000 (Invitrogen) according to manufacturer's protocol (0.75 μl of Lipofectamine 3000, 25 pmol siRNA in each well). Plasmids included pCGN (HA-tag)^48, pCGN-HA-AURKA (gift from Olga Plotniknova), and pCGN-HA-AURKA KD (made in this study using Q5 Site-Directed Mutagenesis Kit NEB.E0554S according to manufacturer's protocol to contain the K162R variant described for pCDNA3.1-mRFP-AURKA K162R). All plasmids were prepared with Qiagen plasmid midiprep kits. siRNAs were All Stars negative control siRNA (S103650318, Qiagen) and Mm_Aurka_1 Flexitube siRNA (S100908803, Qiagen). Alisertib (10 mM in DMSO, S1133, SelleckChem) was added to media at 1 μM final concentration where indicated.
Following ˜16 hrs after plasmid and siRNA transfections, fresh growth media was placed on mIMCD3 cells and wells harvested up to 24 hrs later. Alternatively, for serum-starvation conditions, 0.5% serum containing was placed on mIMCD3 cells and wells harvested after 24 hrs. For serum-restimulation conditions mIMCD3 cells were first placed in 0.5% serum media for 24 hrs before addition of fresh growth media for up to 20 mins before harvest. For immunofluorescence experiments, mIMCD3 cells were grown on collagen I-coated 22×22 mm coverslips and processed as described in Cottle et al., (2007) J. Cell Sci. 120: 1423-1435 and Wiradjaja et al., (2013) Disease models & mechanisms, 6: 1426-1433).
Tissue extracts were prepared in AlphaLISA Surefire Ultra lysis buffer. Cell extracts were prepared in 1% Triton X-100 in Tris-buffered saline pH7.4 with Roche complete mini protease and PhosSTOP inhibitor tablets as described above. Immunoblotting was performed using standard techniques, with antibodies listed below. Densitometry values were determined using ImageJ software and occasional extreme outliers more than 2 standard deviations from the mean omitted.

[2] = Solubility of Alisertib in the oral dosing vehicle; assay type: physicochemical; conditions: 3.6 mg/ml in 10% 2-hydroxypropyl-β-cyclodextrin, 1% sodium bicarbonate, 5% glucose
Experimental: Alisertib treatment was performed based on previously published protocols (Nikonova et al., (2014) PNAS 111:12859-12864; Nikonova (2015) Frontiers Oncol. 5:228), as follows: Starting at P9 Inpp5e^Δ/Δ and Inpp5e^Δ/Δ mice were treated once daily for 5 days with Alisertib delivered orally by pipette in a suspended solution with a final composition of 3.6 mg/ml Alisertib (S1133, Selleck Chemicals) in 10% 2-hydroxypropyl-β-cyclodextrin (H5784-10ML, Sigma-Aldrich) with 1% (vol/vol) sodium bicarbonate (S8761-100ML, Sigma-Aldrich) and 5% glucose (49163-100ML, Sigma-Aldrich). Mice were dosed with a volume to deliver Alisertib at 10 mg/kg. Mouse body weights were recorded daily. Solutions were stored at 4 degrees for up to 1 month. […] Mice were then given 2 recovery days before being sacrificed at P15. This time frame was selected as it corresponded to an exponential rise in cyst number in Inpp5e^Δ/Δ mice. Aurka^Δ/Δ and Inpp5e^Δ/Δ; Aurka^Δ/Δ treatment groups were also included to determine the AURKA specificity of any phenotypes observed given Alisertib's broad drug targeting profile.

[3] = test system: adult mouse models of ADPKD; conditions: cited from earlier work
[4] = Inpp5e^Δ/Δ mice, 10 mg/kg orally P9 to P13, P15, vs vehicle
[5] = double mutant mice, relative to vehicle controls
[6] = mice in which Aurka had been predominantly deleted, 10 mg/kg orally P9 to P13, P15
[7] = 1 μM Alisertib, 48 hrs, growth conditions

- solubility in dosing vehicle [2]: largely insoluble
Compound: COc1cc(Nc2ncc3c(n2)-c2ccc(Cl)cc2C(c2c(F)cccc2OC)=NC3)ccc1C(=O)O [Alisertib]
- levels of nuclear localised active p53 in collecting duct cells (Inpp5e^Δ/Δ mice; 10 mg/kg orally once daily P9 to P13, tissue at P15): increased levels of nuclear localised active p53
- cilia number (% ciliated collecting duct cells) (Inpp5e^Δ/Δ mice; Inpp5e^Δ/Δ kidneys, vs vehicle): markedly reduced cilia number
- co-expression of high levels of AURKA and AKT pT308 in collecting duct cells (Inpp5e^Δ/Δ mice; Inpp5e^Δ/Δ kidneys, vs vehicle): increased co-expression of high levels of AURKA and AKT pT308
- cyst size (Inpp5e^Δ/Δ mice; [4]): reduced cyst size
- kidney to body weight ratio and kidney size (Inpp5e^Δ/Δ mice; [4]): marked reduction in kidney to body weight ratio and kidney size
- number of cysts (Inpp5e^Δ/Δ mice; [4]): increased in the number of cysts
- hair loss (Inpp5e^Δ/Δ mice; all Alisertib-treated mouse cohorts vs vehicle, 10 mg/kg orally once daily P9 to P13, tissue at P15): hair loss observed in all treated mouse cohorts
- cystic index % (Inpp5e^Δ/Δ mice; cystic genotypes Inpp5e^Δ/Δ and Inpp5e^Δ/Δ, Aurka^Δ/Δ, vs vehicle): no Alisertib-induced changes
- AKT pT308 expression [1, 5]: did not show reduced ciliation or AKT pT308 expression
- ciliation [1, 5]: did not show reduced ciliation
- cyst index [1, 6]: No change
- cyst number [1, 6]: No change
- cyst size [1, 6]: No change
- kidney to body weight ratio [1, 6]: No change
- AURKA protein level (mIMCD3 cells; 1 μM Alisertib, 48 hrs of exposure, growth conditions): two-fold increase in AURKA protein
- AKT phosphorylation at S473 (AKT pS473/total AKT expression ratio) (mIMCD3 cells; [7]): but not S473
- AKT phosphorylation at T308 (AKT pT308/total AKT expression ratio) (mIMCD3 cells; [7]): increasing AKT phosphorylation at T308
- total AKT (mIMCD3 cells; [7]): modestly reducing total AKT
- rebound increase of AKT T308 phosphorylation (mIMCD3 cells; 24 hrs of Alisertib exposure): not observed following 24 hrs of Alisertib exposure
- AURKA T288 phosphorylation ratio (mIMCD3 cells; Alisertib or vehicle for 48 hrs under growth conditions): reduces the AURKA T288 phosphorylation ratio
- cystic disease [3]: exaggerates cystic disease
